# Reference: patent US20090036461A1, “Use of Azabicyclo Hexane Derivatives” (priority 2005, published 2009)
# Molecular target: D3 (Homo sapiens, UniProt P35462)
# Assay: functional pKi (fpKi) at D3, comparison of separated enantiomers
# Assay type: biochemical
# Settings: difference in fpKi between the two separated enantiomers of the same example
# Chain of D3 (P35462 whole entry): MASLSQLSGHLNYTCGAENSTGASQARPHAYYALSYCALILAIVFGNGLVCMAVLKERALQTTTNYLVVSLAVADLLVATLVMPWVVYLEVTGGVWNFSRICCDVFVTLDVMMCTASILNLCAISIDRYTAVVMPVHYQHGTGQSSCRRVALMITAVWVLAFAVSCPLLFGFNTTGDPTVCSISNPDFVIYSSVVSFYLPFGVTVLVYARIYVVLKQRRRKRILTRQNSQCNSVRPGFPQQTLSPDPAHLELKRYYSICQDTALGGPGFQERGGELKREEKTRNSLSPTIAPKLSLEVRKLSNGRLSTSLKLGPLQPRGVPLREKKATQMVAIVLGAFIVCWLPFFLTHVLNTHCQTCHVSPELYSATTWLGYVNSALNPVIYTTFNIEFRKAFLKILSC
row,Structure (SMILES),fpKi (D3) higher than the other enantiomer [log-unit]
1,"CCC(=O)c1cc([C@]23C[C@H]2CN(CCCSc2nnc(-c4ocnc4C)n2C)C3)ccc1OC (single isomer, unassigned) [Example 71 Enantiomer 1]",> 1
2,"Cc1ccc2c(-c3nnc(SCCCN4C[C@@H]5C[C@]5(c5ccc(C(C)(C)C)cc5)C4)n3C)cccc2n1 (single isomer, unassigned) [Example 5 Enantiomer 2]",> 0.9
3,"Cc1ncoc1-c1nnc(SCCCN2C[C@@H]3C[C@]3(c3ccc4c(cnn4C)c3)C2)n1C (single isomer, unassigned) [Example 74 Enantiomer 1]",> 1
4,"Cc1ncoc1-c1nnc(SCCCN2C[C@@H]3C[C@]3(c3ccc(Cl)cc3)C2)n1C (single isomer, unassigned) [Example 20 Enantiomer 1]",> 1
5,"Cn1c(SCCCN2C[C@@H]3C[C@]3(c3ccc(OC(F)(F)F)cc3)C2)nnc1C1CCOCC1 (single isomer, unassigned) [Example 33 Enantiomer 1]",> 1
6,"Cc1ncoc1-c1nnc(SCCCN2C[C@@H]3C[C@]3(c3cccc(C(F)(F)F)c3F)C2)n1C (single isomer, unassigned; enantiomer 2) [Example 111 Enantiomer 2]",> 1
7,"Cc1ncoc1-c1nnc(SCCCN2C[C@]3(C)C[C@@]3(c3cccc(Cl)c3)C2)n1C (single isomer, unassigned) [Example 22 Enantiomer 1]",> 1
8,"Cc1ncoc1-c1nnc(SCCCN2C[C@]3(C)C[C@@]3(c3ccc(C(F)(F)F)c(F)c3)C2)n1C (single isomer, unassigned) [Example 61 Enantiomer 1]",> 2
9,"Cc1ncoc1-c1nnc(SCCCN2C[C@@H]3C[C@]3(c3cccc(F)c3)C2)n1C (single isomer, unassigned) [Example 23 Enantiomer 1]",> 1
10,"Cc1ncoc1-c1nnc(SCCCN2C[C@@H]3C[C@]3(c3ccc(F)cc3)C2)n1C (single isomer, unassigned) [Example 21 Enantiomer 1]",> 1
11,"COc1ccc([C@]23C[C@H]2CN(CCCSc2nnc(-c4cccc5nc(C)ccc45)n2C)C3)cc1 (single isomer, unassigned) [Example 1 Enantiomer 1]",> 1
12,"Cc1ccc2c(-c3nnc(SCCCN4C[C@@H]5C[C@]5(c5ccc(Br)cc5)C4)n3C)cccc2n1 (single isomer, unassigned) [Example 2 Enantiomer 2]",> 1
13,"Cc1ncoc1-c1nnc(SCCCN2C[C@@H]3C[C@]3(c3ccc(Br)cc3)C2)n1C (single isomer, unassigned) [Example 9 Enantiomer 1]",> 1
14,"COc1ccc([C@]23C[C@H]2CN(CCCSc2nnc(-c4ocnc4C)n2C)C3)cc1C(C)=O (single isomer, unassigned) [Example 19 Enantiomer 1]",> 1
15,"Cc1ccc2c(-c3nnc(SCCCN4C[C@@H]5C[C@]5(c5ccccc5)C4)n3C)cccc2n1 (single isomer, unassigned) [Example 3 Enantiomer 2]",> 1
16,"Cc1ccc2c(-c3nnc(SCCCN4C[C@@H]5C[C@]5(c5ccc(Cl)c(Cl)c5)C4)n3C)cccc2n1 (single isomer, unassigned) [Example 4 Enantiomer 1]",> 0.6
17,"Cc1ncoc1-c1nnc(SCCCN2C[C@@H]3C[C@]3(c3ccc(OC(F)(F)F)cc3)C2)n1C (single isomer, unassigned; enantiomer 1) [Example 30 Enantiomer 1]",> 1
18,"Cc1ncoc1-c1nnc(SCCCN2C[C@@H]3C[C@]3(c3ccc(C(F)(F)F)cn3)C2)n1C (single isomer, unassigned) [Example 96 Enantiomer 2]",> 1
19,"COc1cccc([C@]23C[C@H]2CN(CCCSc2nnc(-c4ocnc4C)n2C)C3)c1 (single isomer, unassigned) [Example 24 Enantiomer 1]",> 1
20,"Cc1ncoc1-c1nnc(SCCCN2C[C@@H]3C[C@]3(c3cc(F)cc(C(F)(F)F)c3)C2)n1C (single isomer, unassigned; enantiomer 1) [Example 110 Enantiomer 1]",> 1
21,"Cc1nc2cc([C@]34C[C@H]3CN(CCCSc3nnc(-c5ocnc5C)n3C)C4)ccc2s1 (single isomer, unassigned) [Example 72 Enantiomer 1]",> 1
22,"Cc1ncoc1-c1nnc(SCCCN2C[C@@H]3C[C@]3(c3cc(C(F)(F)F)ccc3F)C2)n1C (single isomer, unassigned) [Example 36 Enantiomer 2]",> 1
